Experimental findings from ChEMBL document CHEMBL5291721, “A preclinical secondary pharmacology resource illuminates target-adverse drug reaction associations of marketed drugs” (Nat Commun, 2023) are described below.

Targets include Mu-type opioid receptor (Homo sapiens, UniProt P35372); Vasopressin V2 receptor (Homo sapiens, UniProt P30518); Motilin receptor (Homo sapiens, UniProt O43193); D(3) dopamine receptor (Homo sapiens, UniProt P35462).
Test [1] addresses T1, Alpha-1A adrenergic receptor (Homo sapiens, UniProt P35348).
T1 sequence (P35348 whole entry): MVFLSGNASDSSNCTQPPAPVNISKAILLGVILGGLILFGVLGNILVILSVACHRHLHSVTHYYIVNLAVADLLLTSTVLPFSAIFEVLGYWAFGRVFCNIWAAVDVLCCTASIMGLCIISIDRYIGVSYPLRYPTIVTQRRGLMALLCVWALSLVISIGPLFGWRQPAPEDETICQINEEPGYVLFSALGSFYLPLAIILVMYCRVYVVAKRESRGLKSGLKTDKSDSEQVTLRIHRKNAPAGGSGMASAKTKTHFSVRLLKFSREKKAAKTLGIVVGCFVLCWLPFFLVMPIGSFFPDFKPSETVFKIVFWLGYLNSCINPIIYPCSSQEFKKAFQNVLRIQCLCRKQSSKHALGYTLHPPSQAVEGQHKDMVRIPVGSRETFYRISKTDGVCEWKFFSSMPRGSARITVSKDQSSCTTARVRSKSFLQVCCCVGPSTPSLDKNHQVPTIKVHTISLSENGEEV
The class given is functional, cell-based.

A further test has as its target T2, Progesterone receptor (Homo sapiens, UniProt P06401).
T2 sequence (P06401 whole entry): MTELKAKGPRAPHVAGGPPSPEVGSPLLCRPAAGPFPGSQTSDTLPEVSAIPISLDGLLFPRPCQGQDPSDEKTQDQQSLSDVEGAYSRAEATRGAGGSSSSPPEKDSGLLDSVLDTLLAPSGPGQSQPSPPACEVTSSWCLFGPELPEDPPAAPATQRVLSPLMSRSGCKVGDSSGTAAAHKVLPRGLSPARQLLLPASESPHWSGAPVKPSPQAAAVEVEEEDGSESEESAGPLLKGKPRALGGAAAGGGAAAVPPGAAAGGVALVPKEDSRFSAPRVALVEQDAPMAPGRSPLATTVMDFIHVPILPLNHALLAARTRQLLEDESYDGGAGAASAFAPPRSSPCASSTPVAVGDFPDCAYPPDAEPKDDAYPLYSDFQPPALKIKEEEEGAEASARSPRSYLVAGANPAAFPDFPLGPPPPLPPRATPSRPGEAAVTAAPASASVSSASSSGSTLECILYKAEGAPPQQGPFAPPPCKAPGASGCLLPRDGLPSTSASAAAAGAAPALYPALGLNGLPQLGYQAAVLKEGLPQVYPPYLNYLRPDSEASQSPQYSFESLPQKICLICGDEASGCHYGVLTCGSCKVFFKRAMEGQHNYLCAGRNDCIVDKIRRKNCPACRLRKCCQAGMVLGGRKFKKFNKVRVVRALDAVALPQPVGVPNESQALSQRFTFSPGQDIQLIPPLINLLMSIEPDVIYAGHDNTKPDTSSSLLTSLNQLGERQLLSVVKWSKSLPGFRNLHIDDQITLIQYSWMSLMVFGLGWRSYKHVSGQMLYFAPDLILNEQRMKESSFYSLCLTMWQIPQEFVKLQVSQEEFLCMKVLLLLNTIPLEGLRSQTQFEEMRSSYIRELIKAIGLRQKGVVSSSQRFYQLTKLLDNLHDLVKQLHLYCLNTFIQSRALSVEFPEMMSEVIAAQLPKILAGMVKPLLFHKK

A further test deals with T3, Adenosine receptor A1 (Homo sapiens, UniProt P30542).
T3 sequence (P30542 whole entry): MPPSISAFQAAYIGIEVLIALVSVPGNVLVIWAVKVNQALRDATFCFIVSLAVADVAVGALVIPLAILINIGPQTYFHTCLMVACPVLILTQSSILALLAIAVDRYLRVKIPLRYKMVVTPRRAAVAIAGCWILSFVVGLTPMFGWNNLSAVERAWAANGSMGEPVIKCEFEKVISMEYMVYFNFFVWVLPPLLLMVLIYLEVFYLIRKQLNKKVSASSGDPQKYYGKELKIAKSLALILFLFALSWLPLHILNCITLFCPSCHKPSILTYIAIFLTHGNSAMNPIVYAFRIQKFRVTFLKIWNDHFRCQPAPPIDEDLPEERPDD

The target in test [2] is Neuronal acetylcholine receptor subunit alpha-4 (Homo sapiens, UniProt P43681).
Sequence of Neuronal acetylcholine receptor subunit alpha-4 (P43681 whole entry): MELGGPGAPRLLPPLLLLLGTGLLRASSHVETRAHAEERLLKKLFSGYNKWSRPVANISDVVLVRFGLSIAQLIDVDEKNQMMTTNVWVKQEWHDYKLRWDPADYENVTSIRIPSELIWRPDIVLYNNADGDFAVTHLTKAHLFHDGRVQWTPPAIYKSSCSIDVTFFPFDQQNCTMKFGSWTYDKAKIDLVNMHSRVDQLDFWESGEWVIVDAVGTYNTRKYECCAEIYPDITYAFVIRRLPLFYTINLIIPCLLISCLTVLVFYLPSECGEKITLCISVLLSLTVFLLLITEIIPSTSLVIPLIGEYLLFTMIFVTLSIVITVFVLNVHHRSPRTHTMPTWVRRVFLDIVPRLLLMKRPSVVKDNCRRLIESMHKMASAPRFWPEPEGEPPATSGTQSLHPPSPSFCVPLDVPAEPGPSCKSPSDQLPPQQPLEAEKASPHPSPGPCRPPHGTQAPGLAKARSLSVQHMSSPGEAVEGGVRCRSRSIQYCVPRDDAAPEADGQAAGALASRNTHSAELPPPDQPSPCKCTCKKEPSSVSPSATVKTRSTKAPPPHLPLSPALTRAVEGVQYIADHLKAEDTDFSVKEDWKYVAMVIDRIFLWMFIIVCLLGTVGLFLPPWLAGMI
The target of test [3] is Glutamate receptor ionotropic, NMDA 1 (Rattus norvegicus, UniProt P35439).
Test [4] addresses T4, Equilibrative nucleoside transporter 1 (Homo sapiens, UniProt Q99808).
T4 sequence (Q99808 whole entry): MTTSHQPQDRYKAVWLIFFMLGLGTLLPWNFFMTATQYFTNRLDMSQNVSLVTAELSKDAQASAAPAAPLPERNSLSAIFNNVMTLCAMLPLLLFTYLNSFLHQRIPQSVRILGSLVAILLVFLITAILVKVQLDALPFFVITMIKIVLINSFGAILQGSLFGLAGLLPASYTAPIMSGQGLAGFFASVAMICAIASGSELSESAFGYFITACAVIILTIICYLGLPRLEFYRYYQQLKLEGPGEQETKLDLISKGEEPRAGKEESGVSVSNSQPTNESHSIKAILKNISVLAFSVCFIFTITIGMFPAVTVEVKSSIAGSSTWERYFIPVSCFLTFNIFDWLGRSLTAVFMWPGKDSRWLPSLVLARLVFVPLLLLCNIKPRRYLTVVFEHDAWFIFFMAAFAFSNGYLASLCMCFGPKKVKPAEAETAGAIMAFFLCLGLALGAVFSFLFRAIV

A further test concerns the target T5, Thromboxane A2 receptor (Homo sapiens, UniProt P21731).
T5 sequence (P21731 whole entry): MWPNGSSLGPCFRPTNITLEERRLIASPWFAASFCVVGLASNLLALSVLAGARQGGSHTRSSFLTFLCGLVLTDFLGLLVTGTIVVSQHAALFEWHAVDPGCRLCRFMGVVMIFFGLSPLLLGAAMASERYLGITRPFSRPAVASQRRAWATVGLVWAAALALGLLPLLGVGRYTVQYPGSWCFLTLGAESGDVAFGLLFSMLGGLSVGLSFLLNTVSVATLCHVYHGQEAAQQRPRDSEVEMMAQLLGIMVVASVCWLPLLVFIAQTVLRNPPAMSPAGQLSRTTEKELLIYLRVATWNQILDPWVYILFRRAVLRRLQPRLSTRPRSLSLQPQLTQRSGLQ

Structures are written as SMILES. Where only a bound is given, the exact number is not on record here.
Further: assay procedure not described here.

Sequence of Vasopressin V2 receptor (P30518 whole entry): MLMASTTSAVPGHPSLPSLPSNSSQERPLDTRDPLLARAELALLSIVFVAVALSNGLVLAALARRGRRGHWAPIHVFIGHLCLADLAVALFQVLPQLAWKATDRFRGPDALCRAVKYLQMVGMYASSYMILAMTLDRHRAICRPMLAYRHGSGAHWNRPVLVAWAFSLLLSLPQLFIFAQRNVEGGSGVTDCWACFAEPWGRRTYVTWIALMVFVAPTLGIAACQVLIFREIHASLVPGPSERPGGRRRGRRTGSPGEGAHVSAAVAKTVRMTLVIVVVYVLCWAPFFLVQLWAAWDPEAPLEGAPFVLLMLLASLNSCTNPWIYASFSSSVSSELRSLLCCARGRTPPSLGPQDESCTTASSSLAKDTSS
Sequence of Motilin receptor (O43193 whole entry): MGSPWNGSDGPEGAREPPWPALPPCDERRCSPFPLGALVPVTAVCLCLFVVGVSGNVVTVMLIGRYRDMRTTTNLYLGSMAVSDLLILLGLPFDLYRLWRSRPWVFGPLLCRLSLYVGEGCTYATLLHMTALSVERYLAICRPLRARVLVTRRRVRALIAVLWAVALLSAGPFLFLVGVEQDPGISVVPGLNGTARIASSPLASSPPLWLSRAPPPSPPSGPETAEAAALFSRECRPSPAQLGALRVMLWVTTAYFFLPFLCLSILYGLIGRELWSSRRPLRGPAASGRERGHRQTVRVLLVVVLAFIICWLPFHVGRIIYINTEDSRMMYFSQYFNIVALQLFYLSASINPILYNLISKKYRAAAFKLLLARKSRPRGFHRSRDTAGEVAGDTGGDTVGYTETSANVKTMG
Sequence of D(3) dopamine receptor (P35462 whole entry): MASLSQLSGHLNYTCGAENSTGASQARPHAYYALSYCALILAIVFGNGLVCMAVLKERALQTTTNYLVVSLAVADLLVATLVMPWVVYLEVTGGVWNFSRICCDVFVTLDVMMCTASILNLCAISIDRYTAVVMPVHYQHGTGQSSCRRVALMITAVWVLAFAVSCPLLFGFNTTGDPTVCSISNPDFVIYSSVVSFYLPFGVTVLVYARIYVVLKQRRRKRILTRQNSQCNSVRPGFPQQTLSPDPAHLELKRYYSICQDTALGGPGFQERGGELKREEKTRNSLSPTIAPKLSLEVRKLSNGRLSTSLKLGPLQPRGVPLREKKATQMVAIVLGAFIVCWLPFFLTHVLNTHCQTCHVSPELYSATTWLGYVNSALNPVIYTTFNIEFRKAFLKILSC
Sequence of Mu-type opioid receptor (P35372 whole entry): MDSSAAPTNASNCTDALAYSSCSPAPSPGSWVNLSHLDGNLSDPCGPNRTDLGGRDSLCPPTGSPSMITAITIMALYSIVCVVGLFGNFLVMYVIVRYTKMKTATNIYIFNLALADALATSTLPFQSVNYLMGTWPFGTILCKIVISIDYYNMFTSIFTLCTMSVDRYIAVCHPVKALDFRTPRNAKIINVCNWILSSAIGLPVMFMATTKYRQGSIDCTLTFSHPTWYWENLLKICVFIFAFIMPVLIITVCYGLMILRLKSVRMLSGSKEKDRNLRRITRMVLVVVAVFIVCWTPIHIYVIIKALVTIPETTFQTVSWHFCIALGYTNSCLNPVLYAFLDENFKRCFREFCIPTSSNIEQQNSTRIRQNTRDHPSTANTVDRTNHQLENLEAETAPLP

As to `Cc1cc2c(cc1S(N)(=O)=O)S(=O)(=O)CCC2`, the AC50 (in test [1]; at Mu-type opioid receptor; on Progesterone receptor) was > 30 µM each time.

Take `C[C@H](N[C@@H](CCc1ccccc1)C(=O)O)C(=O)N1Cc2ccccc2C[C@H]1C(=O)O`: the AC50 (in test [1]; at Mu-type opioid receptor; at Progesterone receptor) was > 30 µM in each case.

For `O=C(O)[C@@H]1C[C@@H](O)CN1`, the AC50 in test [1] is > 30 µM; at Mu-type opioid receptor it was > 10 µM; on Progesterone receptor, > 30 µM.

For `CC1(C)S[C@@H]2[C@H](/N=C/N3CCCCCC3)C(=O)N2[C@H]1C(=O)O` [AMDINOCILLIN], the half-maximal activity concentration (AC50) (in [1]; at Mu-type opioid receptor; on Progesterone receptor) was > 30 µM throughout.

For `CC(=O)[C@]1(N)Cc2c(O)c3c(c(O)c2[C@@H](O[C@H]2C[C@H](O)[C@H](O)CO2)C1)C(=O)c1ccccc1C3=O` [AMRUBICIN], the AC50 in test [1] is > 3 µM; at Mu-type opioid receptor, > 30 µM; at Progesterone receptor, > 30 µM.

With `NC(=O)[C@@H]1CC[C@@H]2CN1C(=O)N2OS(=O)(=O)O` [AVIBACTAM], the AC50 (in test [1]; at Mu-type opioid receptor; at Progesterone receptor) was > 30 µM in each case.

With `CC(=O)OC[C@H]1O[C@@H](n2ncc(=O)[nH]c2=O)[C@H](OC(C)=O)[C@@H]1OC(C)=O` [AZARIBINE], the AC50 (in [1]; on Mu-type opioid receptor; at Progesterone receptor) was > 30 µM throughout.

Take `O=C(/C=C/c1cccc(S(=O)(=O)Nc2ccccc2)c1)NO` [BELINOSTAT]: the AC50 at Adenosine receptor A1 is > 30 µM; at Vasopressin V2 receptor it was > 30 µM; in test [2] it was > 10 µM; in [3] it was > 10 µM; at Motilin receptor, > 10 µM; on Mu-type opioid receptor it was > 30 µM. Also, the AC50 (at Progesterone receptor; in test [4]; on Thromboxane A2 receptor; on D(3) dopamine receptor) was > 30 µM in each case.

As for `CC(C)(C)NC(=O)N[C@H](C(=O)N1C[C@H]2[C@@H]([C@H]1C(=O)NC(CC1CCC1)C(=O)C(N)=O)C2(C)C)C(C)(C)C` (some centres undefined) [BOCEPREVIR], the concentration at half-maximal activity (AC50) (in test [1]; on Mu-type opioid receptor; at Progesterone receptor) was > 30 µM in each case.

Consider `O=C(O)COCCN1CCN(C(c2ccccc2)c2ccc(Cl)cc2)CC1` (centres undefined) [CETIRIZINE], for which the AC50 at Adenosine receptor A1 is > 30 µM; in [1], > 30 µM; at Vasopressin V2 receptor, > 30 µM; in test [2], > 10 µM; in test [3], > 10 µM; on Motilin receptor, > 10 µM. Further, the AC50 (at Progesterone receptor; in [4]; at Thromboxane A2 receptor) was > 30 µM throughout.

Regarding `C=C1CC[C@H](O)C/C1=C/C=C1\CCC[C@]2(C)[C@@H]([C@H](C)CCCC(C)C)CC[C@@H]12` [CHOLECALCIFEROL], the AC50 (in test [1]; at Mu-type opioid receptor) was > 30 µM each time.

For the compound `C[C@H](CCC(=O)O)[C@H]1CC[C@H]2[C@@H]3[C@H](O)C[C@@H]4C[C@H](O)CC[C@]4(C)[C@H]3C[C@H](O)[C@]12C` [CHOLIC ACID], the AC50 (in test [1]; on Progesterone receptor) was > 30 µM throughout.

Regarding `Cc1ncc2c(c1O)COC2c1ccc(Cl)cc1` (centres undefined) [CICLETANINE], the AC50 (in test [1]; on Mu-type opioid receptor; at Progesterone receptor) was > 30 µM in each case.

As for `Cc1cn([C@H]2O[C@@H](CO)[C@H](O)[C@H]2F)c(=O)[nH]c1=O` [CLEVUDINE], the AC50 (in [1]; at Mu-type opioid receptor; on Progesterone receptor) was > 30 µM throughout.

For the compound `N#Cc1ccc(Oc2ccc3c(c2)COB3O)cc1` [CRISABOROLE], the values for the AC50 (in test [1]; on Mu-type opioid receptor; on Progesterone receptor) were 4.32 µM, > 30 µM and > 30 µM, respectively.

Regarding `CC(=O)O[C@]1(C(C)=O)CC[C@H]2[C@@H]3C=C(Cl)C4=CC(=O)[C@@H]5C[C@@H]5[C@]4(C)[C@H]3CC[C@@]21C` [CYPROTERONE ACETATE], the half-maximal activity concentration (AC50) is > 30 µM at Adenosine receptor A1; > 3 µM in test [1]; > 30 µM on Vasopressin V2 receptor; > 10 µM in [2]; > 10 µM in [3]; > 10 µM at Motilin receptor. In addition, the half-maximal activity concentration (AC50) (at Mu-type opioid receptor; in test [4]; at Thromboxane A2 receptor; on D(3) dopamine receptor) was > 30 µM throughout.

Turning to `CC(=O)[C@H]1CC[C@H]2[C@@H]3C=CC4=CC(=O)CC[C@@]4(C)[C@@H]3CC[C@]12C` [DYDROGESTERONE], the half-maximal activity concentration (AC50) in test [1] is 29.2 µM; at Mu-type opioid receptor, > 30 µM.

On to `CC(=O)O[C@H]1Cc2ccccc2N(C(N)=O)c2ccccc21` [ESLICARBAZEPINE ACETATE], for which the AC50 (in test [1]; on Mu-type opioid receptor; on Progesterone receptor) was > 30 µM each time.

For `CC(O)(P(=O)(O)O)P(=O)(O)O` [ETIDRONIC ACID], the AC50 (in test [1]; at Mu-type opioid receptor) was > 30 µM each time.

Turning to `C[C@@H]1C[C@H]2[C@@H]3C[C@H](F)C4=CC(=O)C=C[C@]4(C)[C@@]3(F)[C@@H](O)C[C@]2(C)[C@@]1(OC(=O)c1ccco1)C(=O)SCF` [FLUTICASONE FUROATE], the AC50 on Adenosine receptor A1 is > 10 µM; in test [1] it was > 30 µM; at Vasopressin V2 receptor, > 10 µM; in test [2], > 10 µM; in test [3], > 10 µM; at Motilin receptor it was > 10 µM. Also, the half-maximal activity concentration (AC50) at Mu-type opioid receptor was > 30 µM; in test [4] it was > 10 µM; on Thromboxane A2 receptor it was > 10 µM; on D(3) dopamine receptor, > 30 µM.

As for `Cc1ccc(S(=O)(=O)NC(=O)NC2CCCCC2)cc1` [GLYCYCLAMIDE], the AC50 (in [1]; at Mu-type opioid receptor; on Progesterone receptor) was > 30 µM throughout.

Turning to `CN1CCCN(C(c2ccccc2)c2ccc(Cl)cc2)CC1` (centres undefined) [HOMOCHLORCYCLIZINE], the results for the AC50 (in [1]; at Mu-type opioid receptor; at Progesterone receptor) were 2.89 µM, 7.4 µM and > 30 µM, respectively.

The AC50 is the concentration giving half of the maximal activity seen. A lower AC50 goes with activity at low concentration.
